What was measured:
Assay type in all cases: in vivo, mouse
[1] = test system: dendritic cells in the spleen (CD11c+/CD11b+/CD8+ cells); assay: Example 5: activated dendritic cells in the spleen of B16F10 tumor mice (FACS); conditions: 24 hours after treatment, 5 mg/kg, mean from 5 mice
Experimental: (§1) This example illustrates activation of immune cells in a mouse tumor model in response to a TLR3 or TLR9 agonist.
(§2) Six to eight week old female C57BL/6 mice were purchased from the Jackson Laboratories. All animals were housed in a pathogen free vivarium facility at Pfizer and experiments were conducted according to the protocols in accordance with the Institutional Animal Care and Use Committee (IACUC) guidelines.
(§3) The B16F10 melanoma cell line was purchased from American Type Culture Collection (ATCC). Cells were cultured in Dulbecco's Modified Eagle's Medium (DMEM) supplemented with 10% fetal bovine serum (FBS), 2 mM L-glutamine at 37° C. in 5% carbon dioxide (CO2), and IMPACT-tested for pathogens at Research Animal Diagnostic Laboratory (RADIL) (Columbia, Mo.). Pathogen-free cells growing in an exponential growth phase were harvested and used for tumor inoculation.
(§4) The TLR3 agonist was polyinosine-polycytidylic acid [poly(I:C)], high molecular weight [a synthetic analog of double-stranded RNA (dsRNA)], purchased from InvivoGen. The TLR9 agonist was CpG24555
(§5) On day 0, C57BL/6 mice were inoculated subcutaneously at the right flank with 5×10^5 B16F10 cells in PBS. […] The treatment groups were 1) PBS (control); 2) poly(I:C) (TLR3 agonist); 3) CpG24555 (TLR9 agonist). Treatment was started on the same day as randomization. Poly(I:C) and CpG24555 were dosed at 5 mg/kg, in phosphate buffered saline (PBS) (Life Technologies).
(§6) 24 hours after treatment, the mice were euthanized and their spleen, draining lymph nodes, and B16F10 tumor were harvested. The harvested spleen, draining lymph nodes, and B16F10 tumor were dissociated to single cell suspensions, and then stained for evaluation of multiple markers by FACS analysis. To evaluate dendritic cell activation, cells were incubated with anti-CD11c, anti-CD11b, and anti-CD8 mAbs, and additionally one of anti-CD40, anti-CD86, or anti-PD-L1 mAbs. To evaluate effector T cell activation, cells were incubated with anti-CD8 and anti-CD44 mAbs, and additionally one of anti-OX40 or anti-4-1BB mAbs. […]

[2] = test system: dendritic cells in the draining lymph nodes (CD11c+/CD11b+/CD8+ cells); assay: Example 5: activated dendritic cells in the draining lymph nodes of B16F10 tumor mice (FACS); conditions: 24 hours after treatment, 5 mg/kg, mean from 5 mice
Experimental: as §1, §2, §3, §4, §5, §6

B16F10 melanoma tumors [3] = assay: Example 3A: TLR3 agonist with anti-PD-1, anti-OX40, anti-4-1BB antibodies, murine B16F10 melanoma model; conditions: poly(I:C) 2.5 mg/kg it x1 day 9, anti-PD-1 15, anti-OX40 5, anti-4-1BB 3 mg/kg ip x3
Source text: This example illustrates the therapeutic activity of a TLR3 agonist in combination with i) an antagonist anti-PD-1 antibody; ii) an antagonist anti-PD-1 antibody and an agonist anti-OX40 antibody; iii) an antagonist anti-PD-1 antibody and an agonist anti-4-1-BB antibody; and iv) an antagonist anti-PD-1 antibody, an agonist anti-4-1-BB antibody, and an agonist anti-OX40 antibody in a murine B16F10 melanoma model.
as §2
The B16F10 melanoma cell line was purchased from American Type Culture Collection (ATCC). Cells were cultured in Dulbecco's Modified Eagle's Medium (DMEM) supplemented with 10% fetal bovine serum (FBS), 2 mM L-glutamine at 37° C. in 5% carbon dioxide (CO2), and IMPACT-tested for pathogens at Research Animal Diagnostic Laboratory (RADIL) (Columbia, MO). Pathogen-free cells growing in an exponential growth phase were harvested and used for tumor inoculation.
(§7) The TLR3 agonist was polyinosine-polycytidylic acid [poly(I:C)], high molecular weight [a synthetic analog of double-stranded RNA (dsRNA)], purchased from InvivoGen. Poly(I:C) was dosed at 2.5 mg/kg, in phosphate buffered saline (PBS) (Life Technologies), intratumorally (it) for one dose 9 days after tumor inoculation.
Therapeutic mouse anti-mouse 4-1BB mAb (mouse immunoglobulin G1 [mIgG1]), derived from the parental clone MAB9371 (R&D Systems), was prepared in-house. Therapeutic mouse anti-OX40 antibodies with the mIgG1 isotype (anti-OX40 mIgG1) were derived from parental clone OX86 in house. Therapeutic mouse anti-mouse PD-1 mAb (mIgG1) was prepared in-house. Anti-PD-1, anti-OX40 antibody and anti-4-1BB antibodies were dosed at 15 mg/kg, 5 mg/kg and 3 mg/kg, respectively, in phosphate buffered saline (PBS) (Life Technologies), and dosed at 0.2 mL per mouse intraperitoneally (ip) for 3 doses 3 to 4 days apart.
C57BL/6 mice were inoculated subcutaneously at the right flank with 0.3×10^6 B16F10 cells in 0.1 mL of PBS. When tumors reached target size, mice were randomized into treatment groups. Treatment was started on the same day as randomization. Tumor size was measured 3-4 times weekly in 2 dimensions using a caliper, and the volume was calculated in cubic millimeters using the formula: V=0.5 L×W^2 where L is the longest diameter of the tumor and W is the diameter perpendicular to L. Body weight was recorded weekly.
Results from Example 3A are shown in FIGS. 3A-3L and summarized in Table 3 below [mean tumor size±standard deviation (SD)]. Statistical analyses were performed using GraphPad Prism 6.0. 2-way ANOVA was applied to compare the statistical differences among multiple groups relative to the isotype control or other treatment groups. P<0.05 was considered as significant difference. Tumor measurements are in mm^3. For most treatment groups, more days post-tumor inoculation (also referred to as “days post implantation”) are shown in FIGS. 3A-3L than in the corresponding information in Table 3 (due to the reduction in the number of mice in most groups over the course of the study, and the increase in SD with a reduced number of mice).

[4] = test system: effector T cells in the tumor (TILs) (CD8+/CD44+ cells); assay: Example 5: activated effector T cells in the tumor (TILs) of B16F10 tumor mice (FACS); conditions: 24 hours after treatment, 5 mg/kg, mean from 5 mice
Experimental: as §1, §2, §3, §4
On day 0, C57BL/6 mice were inoculated subcutaneously at the right flank with 5×10^5 B16F10 cells in PBS. […] The treatment groups were 1) PBS (control); 2) poly(I:C) (TLR3 agonist); 3) CpG24555 (TLR9 agonist). Treatment was started on the same day as randomization. […]

B16F10 melanoma tumors [5] = assay: Example 1: TLR3 agonist with anti-OX40 and/or anti-4-1BB antibody, murine B16F10 melanoma model; conditions: poly(I:C) 2.5 mg/kg it x1 day 9, anti-OX40 5 mg/kg, anti-4-1BB 3 mg/kg ip x3
Experimental: This example illustrates the therapeutic activity of a TLR3 agonist in combination with one or both of: i) an agonist anti-OX40 antibody and ii) an agonist anti-4-1BB antibody in a murine B16F10 melanoma model.
as §2, §3, §7
Therapeutic mouse anti-mouse 4-1BB mAb (mouse immunoglobulin G1 [mIgG1]), derived from the parental clone MAB9371 (R&D Systems), was prepared in-house. Therapeutic mouse anti-OX40 antibodies with the mIgG1 isotype (anti-OX40 mIgG1) were derived from parental clone OX86 in house. Anti-OX40 antibody and anti-4-1BB antibodies were dosed at 5 mg/kg and 3 mg/kg, respectively, in phosphate buffered saline (PBS) (Life Technologies), and dosed at 0.2 mL per mouse intraperitoneally (ip) for 3 doses 3 to 4 days apart.
C57BL/6 mice were inoculated subcutaneously at the right flank with 0.3 x 10^6 B16F10 cells in 0.1 mL of PBS. When tumors reached target size, mice were randomized into treatment groups. Treatment was started on the same day as randomization. Tumor size was measured 3-4 times weekly in 2 dimensions using a caliper, and the volume was calculated in cubic millimeters using the formula: V=0.5 L×W^2 where L is the longest diameter of the tumor and W is the diameter perpendicular to L. Body weight was recorded weekly.
Results are shown in FIGS. 1A-1H and summarized in Table 1 below [mean tumor size±standard deviation (SD)]. Statistical analyses were performed using GraphPad Prism 6.0. 2-way ANOVA was applied to compare the statistical differences among multiple groups relative to the isotype control or other treatment groups. P <0.05 was considered as significant difference. Tumor measurements are in mm^3. For most treatment groups, more days post-tumor inoculation (also referred to as “days post implantation”) are shown in FIGS. 1A-1 H than in the corresponding information in Table 1 (due to the reduction in the number of mice in most groups over the course of the study, and the increase in SD with a reduced number of mice).

## polyinosine-polycytidylic acid [TLR3 agonist]
[1]
  % CD40+ of CD11c+/CD11b+/CD8+ cells (activated dendritic cells): 20%
  % CD86+ of CD11c+/CD11b+/CD8+ cells (activated dendritic cells): 22.2%
  % PD-L1+ of CD11c+/CD11b+/CD8+ cells (activated dendritic cells): 23%
[2]
  % CD40+ of CD11c+/CD11b+/CD8+ cells (activated dendritic cells): 9.9%
  % CD86+ of CD11c+/CD11b+/CD8+ cells (activated dendritic cells): 7.5%
  % PD-L1+ of CD11c+/CD11b+/CD8+ cells (activated dendritic cells): 9%
B16F10 melanoma tumors [3]; day 9 post-tumor inoculation
  Mean Tumor Size: 74 mm^3
B16F10 melanoma tumors [3]; day 13 post-tumor inoculation
  Mean Tumor Size: 156 mm^3
B16F10 melanoma tumors [3]; day 15 post-tumor inoculation
  Mean Tumor Size: 236 mm^3
B16F10 melanoma tumors [3]; day 17 post-tumor inoculation
  Mean Tumor Size: 349 mm^3
B16F10 melanoma tumors [3]; day 20 post-tumor inoculation
  Mean Tumor Size: 796 mm^3
B16F10 melanoma tumors [3]; day 22 post-tumor inoculation
  Mean Tumor Size: 1206 mm^3
[4]
  % 4-1BB+ of CD8+/CD44+ cells (activated effector T cells): 36.8%
  % OX-40+ of CD8+/CD44+ cells (activated effector T cells): 55.3%
B16F10 melanoma tumors [5]; day 9 post-tumor inoculation
  Mean Tumor Size: 76 mm^3
B16F10 melanoma tumors [5]; day 10 post-tumor inoculation
  Mean Tumor Size: 116 mm^3
B16F10 melanoma tumors [5]; day 12 post-tumor inoculation
  Mean Tumor Size: 151 mm^3
B16F10 melanoma tumors [5]; day 14 post-tumor inoculation
  Mean Tumor Size: 196 mm^3
B16F10 melanoma tumors [5]; day 16 post-tumor inoculation
  Mean Tumor Size: 309 mm^3
B16F10 melanoma tumors [5]; day 18 post-tumor inoculation
  Mean Tumor Size: 405 mm^3
B16F10 melanoma tumors [5]; day 20 post-tumor inoculation
  Mean Tumor Size: 678 mm^3

Reference: patent US20220370606A1, “Combination Treatments Of Cancer Comprising A TLR Agonist” (Pfizer Inc., priority 2018, published 2022)
